Results taken from US20230303552A1, “ARYLSULFONYL DERIVATIVES AND THEIR USE AS MUSCARINIC ACETYLCHOLINE RECEPTOR M5 INHIBITORS” (Vanderbilt University, priority 2020, published 2023).

Biological target: T1, human M5 receptors (hM5) (Homo sapiens, UniProt P08912)
T1 construct: expressed in transfected cells
T1 sequence (P08912 1-532): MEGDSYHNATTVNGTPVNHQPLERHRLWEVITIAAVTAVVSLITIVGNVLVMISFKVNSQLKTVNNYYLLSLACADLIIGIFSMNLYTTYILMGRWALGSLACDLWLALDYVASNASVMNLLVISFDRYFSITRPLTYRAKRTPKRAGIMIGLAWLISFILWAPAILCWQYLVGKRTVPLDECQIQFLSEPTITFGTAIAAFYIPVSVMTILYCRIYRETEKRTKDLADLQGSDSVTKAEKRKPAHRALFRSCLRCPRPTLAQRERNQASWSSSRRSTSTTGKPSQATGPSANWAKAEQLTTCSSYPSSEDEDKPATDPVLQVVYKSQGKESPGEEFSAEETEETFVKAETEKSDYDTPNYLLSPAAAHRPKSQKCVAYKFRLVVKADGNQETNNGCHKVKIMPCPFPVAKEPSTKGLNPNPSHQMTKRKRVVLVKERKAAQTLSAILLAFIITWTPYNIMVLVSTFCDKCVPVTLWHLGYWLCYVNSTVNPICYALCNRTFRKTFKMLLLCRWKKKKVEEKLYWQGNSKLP
Experiment: Cell-based functional calcium mobilization assay of mAChR M5 activity (inhibition of EC80 acetylcholine response) in CHO cells
Conditions: CHO cells stably expressing hM5; for IC50: calcium flux (Fluo-4), EC80 acetylcholine addition; for EC80 MIN: minimum of EC80 acetylcholine response, normalized to maximum acetylcholine response
Experimental: All functional cell-based assays were performed essentially as previously described (Marlo et al., Mol.Pharm. 2009, 75(3), 577-588; Brady et al., J. Pharm. & Exp. Ther. 2008, 327, 941-953). Initial, single point (10 µM) competitive and non-competitive inhibitor characterization was performed in stable Chinese Hamster Ovary (CHO) cell lines constitutively expressing human M5 receptors. These were plated at 15,000 cells per 20 µL per well in Greiner 384-well black-walled, TC-treated, clear-bottomed plates (Fisher) in Ham’s F12 medium supplemented with 10% FBS and 20 mM HEPES. Cells were incubated overnight at 37° C. under 5% CO2. The following day, medium was exchanged with assay buffer (Hank’s Balanced Salt Solution supplemented with 20 mM HEPES and 2.5 mM Probenecid, pH 7.4) leaving 20 µL of assay buffer in each well. This was followed by the addition of 20 µL of 2.3 µM of Fluo-4 AM (Invitrogen) in assay buffer (final concentration 1.15 µM). The cells were then incubated 50 minutes at 37° C. under 5% CO2. The assay buffer plus dye was then exchanged with fresh assay buffer leaving a volume of 20 µL in each well. Test compounds were diluted into assay buffer to a 2X (20 µM) concentration in 0.2% dimethylsulfoxide (DMSO) in columns 3 - 22 with matching DMSO concentration in columns 1, 2, 23, and […]; compounds were added to the assay for a final concentration of 10 µM and a final DMSO concentration of 0.1%. Acetylcholine (Sigma-Aldrich) was prepared to provide 5X concentrations of EC20, EC80, and ECmax in the triple-addition assay, providing a signal window to view agonism, potentiation, and inhibition of the acetylcholine response as well as a means to normalize to the maximum acetylcholine response.
Either an FDSS (Hamamatsu) or Panoptic (WaveFront Biosciences) kinetic imaging plate reader was used for assay execution and measurement of calcium flux. After establishing baseline fluorescence, test compounds (20 µL) were added to the cells using the reader’s integrated pipettor and allowed to equilibrate for 140 seconds before addition of the EC20 concentration of acetylcholine (10 µL) along with vehicle in selected DMSO-only wells in the outer two columns. The EC80 concentration of acetylcholine (10 µL) was added 125 seconds after the EC20 addition along with ECmax concentration in the wells receiving vehicle in the second addition. The raw fluorescence data from each well was normalized to the corresponding initial fluorescence reading (static ratio). The maximum fluorescence value following each addition was determined and the minimum value within that same timeframe was subtracted for each well then normalized to the average of the ECmax maximum-minimum response, providing a %AChmax value for each addition for each well. The single point values represent mean values determined within the EC80 addition timeframe obtained from at least three independent determinations performed in triplicate or greater (error bars represent +/- SEM) unless otherwise specified.
Further characterization of competitive and non-competitive inhibitor compounds (compound potency and mAChR subtype-selectivity) was performed on the FDSS with calcium mobilization assays performed as previously described (Marlo et al., 2009; Brady et al., 2008) and in a format similar to that described above using the same reagents. CHO cells stably expressing hM1, hM2/Gqi5, hM3, hM4/Gqi5, hM5, rM1, rM2/Gqi5, rM3, rM4/Gqi5, or rMs were plated in the manner described above. A ten-point concentration range of test compound was serial diluted in assay buffer to 2X final concentration and acetylcholine was diluted in assay buffer to 5X of the EC20 and EC80 concentrations, determined empirically and 5X maximal (2 mM final concentration) stock concentrations. FDSS protocols were carried out as described above; the static ratio was calculated and the minimum response subtracted from the maximum response within the timeframe of each addition. […]

| SMILES | IC50 [nM] | EC80 MIN [%] |
| --- | --- | --- |
| O=C(Nc1ccc2scnc2c1)[C@H]1CCN(S(=O)(=O)c2ccc3c(c2)CCO3)C[C@@H]1F (racemic) [Compound 86, Trans-(rac)-N-(Benzo[d]thiazol-5-yl)-1-((2,3-Dihydrobenzofuran-5-yl)Sulfonyl)-3-Fluoropiperidine-4-Carboxamide] | 177 | 2 |
| CC1Cc2cc(S(=O)(=O)N3CCC(C(=O)Nc4ccc5scnc5c4)CC3)ccc2O1 (racemic) [Compound 87, (rac)-N-(benzo[d]thiazol-5-yl)-1-((2-methyl-2.3-dihydrobenzofuran-5-yl)sulfonyl)piperidine-4-carboxamide] | > 10000 |  |
| C[C@@H]1CN(S(=O)(=O)c2ccc3c(c2)CCO3)CC[C@@H]1C(=O)Nc1ccc2scnc2c1 (racemic) [Compound 92, cis-(rac)-,N^_ (benzo[d]thiazol-5-yl)-1-((2,3-dihydrobenzofuran-5-yl)sulfonyl)-3-methylpiperidine-4-carboxamide] | 631 | 4 |
| C[C@@H]1CN(S(=O)(=O)c2ccc3ncsc3c2)CC[C@@H]1C(=O)Nc1ccc2scnc2c1 (racemic) [Compound 93, cis-(rac)-N-(benzo[d]thiazol-5-y1)-1-(benzo[d]thiazol-6-ylsulfonyl)-3-methylpiperidine-4-carboxamide] | 2940 | 4 |
| C[C@@H]1CN(S(=O)(=O)c2ccc(Cl)nc2)CC[C@@H]1C(=O)Nc1ccc2scnc2c1 (racemic) [Compound 94, cis-(rac)-N-(benzo[d]thiazol-5-yl)-1-((6-chloropyridin-3-yl)sulfonyl)-3-methylpiperidine-4-carboxamide] | 4570 | 4 |
| Cc1nn(C)cc1S(=O)(=O)N1CC[C@H](C(=O)Nc2ccc3scnc3c2)[C@H](C)C1 (racemic) [Compound 95, cis-(rac)-,N^_ (benzo[d]thiazol-5-yl)-1-((1,3-dimethyl-1H-pyrazol-4-yl)sulfonyl)-3-methylpiperidine-4-carboxamide] | 4490 | 5 |
| C[C@@H]1CN(S(=O)(=O)c2cccc3nsnc23)CC[C@@H]1C(=O)Nc1ccc2scnc2c1 (racemic) [Compound 96, cis-(rac)-1-(benzo[c][1,2,5]thiadiazol-4-ylsulfonyl)-N-(benzo[d]thiazol-5-yl)-3-methylpiperidine-4-carboxamide] | 1110 | 3 |
| C[C@@H]1C[C@H](C(=O)Nc2ccc3scnc3c2)CCN1S(=O)(=O)c1ccc2c(c1)CCO2 (racemic) [Compound 97, cis-(rac)-N-(benzo[d]thiazol-5-yl)-1-((2,3-dihydrobenzofuran-5-yl)sulfonyl)-2-methylpiperidine-4-carboxamide] | 159 | 2 |
| Cc1nn(C)cc1S(=O)(=O)N1CC[C@@H](C(=O)Nc2ccc3scnc3c2)C[C@H]1C (racemic) [Compound 98, cis-(rac)-,N^_ (benzo[d]thiazol-5-yl)-1-((1,3-dimethyl-1H-pyrazol-4-yl)sulfonyl)-2-methylpiperidine-4-carboxamide] | 324 | 3 |
| C[C@@H]1C[C@H](C(=O)Nc2ccc3scnc3c2)CCN1S(=O)(=O)c1cccc2nsnc12 (racemic) [Compound 99, cis-(rac)-1-(benzo[c][1,2.5]thiadiazol-4-ylsulfonyl)-N-(benzo[d]thiazol-5-yl)-2-methylpiperidine-4-carboxamide] | 389 | 3 |
| C[C@@H]1CN(S(=O)(=O)c2cccnc2)CC[C@@H]1C(=O)Nc1ccc2scnc2c1 (racemic) [Compound 103, cis-(rac)-N-(benzo[d]thiazol-5-yl)-3-methyl-1-(pyridin-3-ylsulfonyl)piperidine-4-carboxamide] | > 10000 | 5 |
| C[C@H]1CN(S(=O)(=O)c2ccc3c(c2)CCO3)CC[C@@H]1C(=O)Nc1ccc2scnc2c1 (racemic) [Compound 116, trans-(rac)-N-(benzo[d]thiazol-5-yl)-1-((2,3-dihydrobenzofuran-5-yl)sulfonyl)-3-methylpiperidine-4-carboxamide] | 1540 | 3 |

Continued, values first:

| IC50 [nM] | EC80 MIN [%] | SMILES |
| --- | --- | --- |
| 8920 | 5 | C[C@H]1CN(S(=O)(=O)c2ccc3ncsc3c2)CC[C@@H]1C(=O)Nc1ccc2scnc2c1 (racemic) [Compound 117, trans-(rac)-N-(benzo[d]thiazol-5-yl)-1-(benzo[d]thiazol-6-ylsulfonyl)-3-methylpiperidine-4-carboxamide] |
| 803 | 4 | C[C@H]1CN(S(=O)(=O)c2ccc(Cl)nc2)CC[C@@H]1C(=O)Nc1ccc2scnc2c1 (racemic) [Compound 118, trans-(rac)-N-(benzo[d]thiazol-5-yl)-1-((6-chloropyridin-3-yl)sulfonyl)-3-methylpiperidine-4-carboxamide] |
| 982 | 4 | C[C@H]1CN(S(=O)(=O)c2cccnc2)CC[C@@H]1C(=O)Nc1ccc2scnc2c1 (racemic) [Compound 119, trans-(rac)-N-(benzo[d]thiazol-5-yl)-3-methyl-1-(pyridin-3-ylsulfornyl)piperidine-4-carboxamide] |
| 275 | 3 | C[C@@H]1C[C@@H](C(=O)Nc2ccc3scnc3c2)CCN1S(=O)(=O)c1ccc(Cl)nc1 (racemic) [Compound 120, trans-(rac)-N-(benzo[d]thiazol-5-yl)-1-((6-chloropyridin-3-yl)sulfonyl)-2-methylpiperidine-4-carboxamide] |
| 449 | 3 | C[C@@H]1C[C@@H](C(=O)Nc2ccc3scnc3c2)CCN1S(=O)(=O)c1cccc2nsnc12 (racemic) [Compound 121, trans-(rac)-1-(benzo[c][1,2,5]thiadiazol-4-ylsulfonyl-N-(benzo[d]thiazol-5-yl)-2-methylpiperidine-4-carboxamide] |
| 94 | 3 | C[C@@H]1C[C@@H](C(=O)Nc2ccc3scnc3c2)CCN1S(=O)(=O)c1ccc2c(c1)CCO2 (racemic) [Compound 122, trans-(rac)-N-(benzo[d]thiazol-5-yl)-1-((2.3-dihydrobenzofuran-5-yl)sulfonyl)-2-methylpiperidine-4-carboxamide] |
| 174 | 3 | Cc1nn(C)cc1S(=O)(=O)N1CC[C@H](C(=O)Nc2ccc3scnc3c2)C[C@H]1C (racemic) [Compound 123, trans-(rac)-N-(benzo[d]thiazol-5-yl)-1-((1,3-dimethyl-1H-pyrazol-4-yl)sulfonyl)-2-methylpiperidine-4-carboxamide] |
| > 10000 | 62 | CC1(C)COc2ccc(S(=O)(=O)N3CC4CC4(C(=O)Nc4ccc5scnc5c4)C3)cc21 (racemic) [Compound 130, (rac)-N-(benzo[d]thiazol-5-yl)-3-((3,3-dimethyl-2,3-dihydrobenzofuran-5-yl)sulfonyl)-3-azabicyclo[3.1.0)hexane-1-carboxamide] |
